From PubChem BioAssay (NCI)
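Method: 48-hour compound exposure of cells in 96-well plates, five concentrations, linear interpolation of endpoints. At the TGI there is no net growth.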

Experiments:
Assay in all cases: growth of human tumour cells (NCI), 48 h
[1] = tested on: HCT-116 colon
[2] = tested on: A549 NSCLC
[3] = tested on: LOX IMVI melanoma
[4] = tested on: OVCAR-8 ovarian
[5] = tested on: COLO 205 colon
[6] = tested on: K-562 leukemia
[7] = tested on: HS 578T breast
[8] = tested on: NCI-H522 lung
[9] = tested on: DU-145 prostate
[10] = tested on: PC-3 prostate
[11] = tested on: MOLT-4 leukemia
[12] = tested on: MDA-MB-435
[13] = tested on: SF-295 CNS
[14] = tested on: SK-OV-3 ovarian
[15] = tested on: UACC-257 melanoma
[16] = tested on: OVCAR-5 ovarian
[17] = tested on: RPMI-8226 leukemia
[18] = tested on: RXF 393 renal
[19] = tested on: OVCAR-4 ovarian
[20] = tested on: EKVX NSCLC
[21] = tested on: UACC-62 melanoma
[22] = tested on: NCI/ADR-RES ovarian
[23] = tested on: A498 renal
[24] = tested on: CAKI-1 renal
[25] = tested on: U251 CNS
[26] = tested on: HT29 colon
[27] = tested on: ACHN renal
[28] = tested on: HCC-2998 colon
[29] = tested on: HCT-15 colon
[30] = tested on: HOP-62 NSCLC
[31] = tested on: SK-MEL-2 melanoma
[32] = tested on: MALME-3M melanoma
[33] = tested on: HL-60(TB) leukemia
[34] = tested on: SW-620 colon
[35] = tested on: UO-31 renal
[36] = tested on: CCRF-CEM leukemia
[37] = tested on: SK-MEL-28 melanoma
[38] = tested on: TK-10 renal
[39] = tested on: 786-0 renal
[40] = tested on: SF-268 CNS
[41] = tested on: SK-MEL-5 melanoma
[42] = tested on: NCI-H23 lung
[43] = tested on: OVCAR-3 ovarian
[44] = tested on: T-47D breast
[45] = tested on: MDA-N
[46] = tested on: MDA-MB-231 breast
[47] = tested on: IGROV1 ovarian
[48] = tested on: MCF7 breast
[49] = tested on: SNB-19 CNS
[50] = tested on: NCI-H460 lung
[51] = tested on: SN12C renal
[52] = tested on: BT-549 breast
[53] = tested on: SNB-75 CNS
[54] = tested on: HOP-92 NSCLC
[55] = tested on: M14 melanoma
[56] = tested on: KM12 colon

For `O=C1/C(=C/c2ccc(Cl)cc2)N=C(c2ccccc2)N1c1nc2ccc(Sc3ccccc3)cc2[nH]1`, the TGI [1] was 62.3 µM, the TGI [2] was greater than 100 µM and the TGI [3] was 61.9 µM. It also gave a TGI [4] greater than 100 µM, a TGI [5] of 33.8 µM and a TGI [6] of 61.8 µM. For the same molecule, the TGI [7] was 91.4 µM, the TGI [8] was 54.3 µM and the TGI [9] was greater than 100 µM. The TGI [10] was greater than 100 µM, the TGI [11] was 87.6 µM and the TGI [12] was 27.1 µM. It also gave a TGI [13] of 87.1 µM, a TGI [14] greater than 100 µM and a TGI [15] of 55.8 µM. For the same molecule, the TGI [16] was greater than 100 µM, the TGI [17] was 55.7 µM and the TGI [18] was greater than 100 µM. It also gave a TGI [19] greater than 100 µM, a TGI [20] greater than 100 µM and a TGI [21] of 29.8 µM. The TGI [22] was 75.5 µM, the TGI [23] was 72.3 µM and the TGI [24] was greater than 100 µM. It also gave a TGI [25] of 84.7 µM, a TGI [26] of 40 µM and a TGI [27] greater than 100 µM. The TGI [28] was 31.4 µM, the TGI [29] was greater than 100 µM and the TGI [30] was greater than 100 µM. It also gave a TGI [31] of 31.6 µM, a TGI [32] of 58.9 µM and a TGI [33] of 35.6 µM. The TGI [34] was 80.8 µM, the TGI [35] was greater than 100 µM and the TGI [36] was 87 µM. It also gave a TGI [37] of 72.7 µM, a TGI [38] of 59.6 µM and a TGI [39] of 64.6 µM. The TGI [40] was greater than 100 µM, the TGI [41] was 29.2 µM and the TGI [42] was greater than 100 µM. For the same molecule, the TGI [43] was greater than 100 µM, the TGI [44] was greater than 100 µM and the TGI [45] was 27.7 µM. It also gave a TGI [46] of 90.1 µM, a TGI [47] greater than 100 µM and a TGI [48] of 63.5 µM. It also gave a TGI [49] greater than 100 µM, a TGI [50] of 61.8 µM and a TGI [51] greater than 100 µM. It also gave a TGI [52] of 57.7 µM, a TGI [53] of 60.2 µM and a TGI [54] greater than 100 µM. The TGI [55] was 35.1 µM and the TGI [56] was 81.2 µM.
